Biological target: Macrophage colony-stimulating factor 1 receptor (Homo sapiens, UniProt P07333)
Experiment: Fluorescence Polarization Competition Immunoassay
Conditions: pH 7.5; 25 °C
Description: The assay buffer used was 100 mM 4-(2-hydroxyethyl)piperazine 1-ethanesulfonic acid (HEPES), pH 7.5, 1 mM 1,4-dithio-DL-threitol (DTT), 0.01% (v/v) Tween-20. Compounds were diluted in assay buffer containing 4% dimethylsulfoxide (DMSO) just prior to the assay. To each well, 5 μL of compound were added followed by the addition of 3 μL of a mix containing 33 nM c-fms (Johnson & Johnson PRD) and 16.7 mM MgCl2 (Sigma) in assay buffer. The kinase reaction was initiated by adding 2 μL of 5 mM ATP (Sigma) in assay buffer. The final concentrations in the assay were 10 nM c-fms, 1 mM ATP, 5 mM MgCl2, 2% DMSO. Control reactions were ran in each plate: in positive and negative control wells, assay buffer (made 4% in DMSO) was substituted for the compound; in addition, positive control wells received 1.2 μL of 50 mM ethylenediaminetetraaceticacid (EDTA). The plates were incubated at room temperature for 45 min. At the end of the incubation, the reaction was quenched with 1.2 μL of 50 mM EDTA (EDTA was not added to the positive control wells at this point; see above). Following a 5-min incubation, each well received 10 μL of a 1:1:3 mixture of anti-phosphotyrosine antibody, 10×, PTK green tracer, 10× (vortexed), FP dilution buffer, respectively (all from PanVera, cat. #P2837). The plate was covered, incubated for 30 min at room temperature and the fluorescence polarization was read on the Analyst. […]

Sequence of Macrophage colony-stimulating factor 1 receptor (P07333 whole entry): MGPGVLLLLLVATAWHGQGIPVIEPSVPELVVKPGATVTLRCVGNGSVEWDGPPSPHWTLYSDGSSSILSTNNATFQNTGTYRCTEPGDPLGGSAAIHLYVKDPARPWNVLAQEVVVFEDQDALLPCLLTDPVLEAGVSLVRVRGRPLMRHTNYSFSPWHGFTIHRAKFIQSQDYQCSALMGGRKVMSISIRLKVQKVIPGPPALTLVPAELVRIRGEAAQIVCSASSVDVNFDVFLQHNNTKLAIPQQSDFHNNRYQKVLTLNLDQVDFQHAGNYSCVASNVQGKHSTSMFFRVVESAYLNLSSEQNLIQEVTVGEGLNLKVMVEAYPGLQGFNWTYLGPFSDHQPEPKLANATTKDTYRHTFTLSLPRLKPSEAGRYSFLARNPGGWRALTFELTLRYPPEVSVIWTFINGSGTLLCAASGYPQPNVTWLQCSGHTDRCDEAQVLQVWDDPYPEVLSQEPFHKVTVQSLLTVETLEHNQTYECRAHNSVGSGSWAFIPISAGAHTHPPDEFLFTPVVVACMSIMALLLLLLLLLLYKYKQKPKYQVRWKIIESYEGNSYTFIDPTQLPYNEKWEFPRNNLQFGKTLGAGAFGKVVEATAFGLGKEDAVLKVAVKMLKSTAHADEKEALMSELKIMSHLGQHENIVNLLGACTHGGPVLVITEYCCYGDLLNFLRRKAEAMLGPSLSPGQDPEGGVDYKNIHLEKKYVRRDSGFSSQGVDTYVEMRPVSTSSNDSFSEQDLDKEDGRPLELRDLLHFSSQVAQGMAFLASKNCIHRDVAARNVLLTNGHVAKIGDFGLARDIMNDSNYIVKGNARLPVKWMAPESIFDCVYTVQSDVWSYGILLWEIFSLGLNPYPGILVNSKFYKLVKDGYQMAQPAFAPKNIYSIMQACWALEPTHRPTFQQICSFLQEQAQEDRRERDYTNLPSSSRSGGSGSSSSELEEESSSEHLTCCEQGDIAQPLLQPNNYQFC

IC50: 2.9 nM
Structure (SMILES): N#Cc1c[nH]c(C(=O)Nc2ccc(C3(O)CCS(=O)(=O)CC3)cc2C2=CCCCC2)n1 [US9394289, 15]

Reference: BindingDB's records for patent US9394289 (Janssen Pharmaceutica, 2016)
